Source: patent US20070167452A1, “Therapeutic amide derivatives” (PFIZER, INC., priority 2004, published 2007)

Tests used:
[1] = target: T1, NR2B receptor (Rattus norvegicus, UniProt P35439+Q00960); experiment: NR2B Binding Assay; conditions: forebrain P2 membranes of male CD rats; 5 nM [3H] NR2B ligand
T1 construct: Membranes were prepared by homogenization of forebrain of male CD rats; from tissue; host or cells: forebrain of male CD rats (P2 membrane)
Protocol: The activity of the cycloalkylene amide compounds of the present invention, as NR2B antagonists, is determined by their ability to inhibit the binding of NR2B subunit at its receptor sites employing radioactive ligands.
The NR^2B antagonist activity of the cycloalkylene amide compounds is evaluated by using the standard assay procedure described in, for example, J. Pharmacol., 331, pp 117-126, 1997. This method essentially involves determining the concentration of the individual compound required to reduce the amount of radiolabelled NR2B ligands by 50% at their receptor sites, thereby affording characteristic IC50 values for each compound tested. More specifically, the assay is carried out as follows.
Membranes were prepared by homogenization of forebrain of male CD rats weighing between 170˜190 g by using glass-Teflon homogenizer in 0.32 M sucrose at 4° C. The crude nuclear pellet was removed by centrifugation at 1000×g for 10 min, and the supernatant centrifuged at 17000×g for 25 min. The resulting pellet was resuspended in 5 mM Tris acetate pH 7.4 at 4° C. for 10 min to lyse cellular particles and again centrifuged at 17000×g. The resulting pellet (P2 membrane) was washed twice in Tris acetate, resuspended at 5.5 mg protein/ml and stored at −20° C. until use. All the manipulation was done on ice, and stock solution and equipment were kept on ice at all time.
For the saturation assay, receptor saturation was determined by incubating [^3H]-1-[(1S*,2S*)-2-hydroxy-2-(4-hydroxyphenyl)-1-methylethyl]-4-phenylpiperidin-4-ol and 50 μg protein of P2 membrane for 60 minutes at room temperature in a final 100 μl of incubation buffer (50 mM Tris HCl, pH7.4). Total and non-specific bindings (in the presence of 10 μM of unlabeled 1-[(1S*,2S*)-2-hydroxy-2-(4-hydroxyphenyl)-1-methylethyl]-4-phenylpiperidin-4-ol) were determined in a range of [^3H]-1-[(1S*,2S*)-2-hydroxy-2-(4-hydroxyphenyl)-1-methylethyl]-4-phenylpiperidin-4-ol concentrations (0.625 nM to 60 nM).
For the competition assay, test compounds were incubated in duplicate with 5 nM [^3H]-1-[(1S*,2S*)-2-hydroxy-2-(4-hydroxyphenyl)-1-methylethyl]-4-phenylpiperidin-4-ol and 50 μg protein of P2 membrane for 60 minutes at room temperature in a final 100 μl of 50 mM Tris HCl buffer (pH7.4). Nonspecific binding was determined by 10 μM of unlabeled 1-[(1S*,2S*)-2-hydroxy-2-(4-hydroxyphenyl)-1-methylethyl]-4-phenylpiperidin-4-ol (25 μl). The saturation derived KD gained in saturation assay was used for all Ki calculations.
All incubations were terminated by rapid vacuum filtration over 0.2% polyethyleneimine soaked Whatman GF/B glass fibre filter paper using a SKATRON cell harvester followed by three washes with ice-cold filtration buffer (5 mM Tris HCl, pH 7.4.). Receptor-bound radioactivity was quantified by liquid scintillation counting using Packard LS counter. Competition assays were performed by counting Wallac GF/B filters on Betaplate scintillation counter (Wallac).

[2] = target: Human HERG (Homo sapiens, UniProt Q12809); experiment: Human Dofetilide Binding Assay
Chain of Human HERG (Q12809 whole entry): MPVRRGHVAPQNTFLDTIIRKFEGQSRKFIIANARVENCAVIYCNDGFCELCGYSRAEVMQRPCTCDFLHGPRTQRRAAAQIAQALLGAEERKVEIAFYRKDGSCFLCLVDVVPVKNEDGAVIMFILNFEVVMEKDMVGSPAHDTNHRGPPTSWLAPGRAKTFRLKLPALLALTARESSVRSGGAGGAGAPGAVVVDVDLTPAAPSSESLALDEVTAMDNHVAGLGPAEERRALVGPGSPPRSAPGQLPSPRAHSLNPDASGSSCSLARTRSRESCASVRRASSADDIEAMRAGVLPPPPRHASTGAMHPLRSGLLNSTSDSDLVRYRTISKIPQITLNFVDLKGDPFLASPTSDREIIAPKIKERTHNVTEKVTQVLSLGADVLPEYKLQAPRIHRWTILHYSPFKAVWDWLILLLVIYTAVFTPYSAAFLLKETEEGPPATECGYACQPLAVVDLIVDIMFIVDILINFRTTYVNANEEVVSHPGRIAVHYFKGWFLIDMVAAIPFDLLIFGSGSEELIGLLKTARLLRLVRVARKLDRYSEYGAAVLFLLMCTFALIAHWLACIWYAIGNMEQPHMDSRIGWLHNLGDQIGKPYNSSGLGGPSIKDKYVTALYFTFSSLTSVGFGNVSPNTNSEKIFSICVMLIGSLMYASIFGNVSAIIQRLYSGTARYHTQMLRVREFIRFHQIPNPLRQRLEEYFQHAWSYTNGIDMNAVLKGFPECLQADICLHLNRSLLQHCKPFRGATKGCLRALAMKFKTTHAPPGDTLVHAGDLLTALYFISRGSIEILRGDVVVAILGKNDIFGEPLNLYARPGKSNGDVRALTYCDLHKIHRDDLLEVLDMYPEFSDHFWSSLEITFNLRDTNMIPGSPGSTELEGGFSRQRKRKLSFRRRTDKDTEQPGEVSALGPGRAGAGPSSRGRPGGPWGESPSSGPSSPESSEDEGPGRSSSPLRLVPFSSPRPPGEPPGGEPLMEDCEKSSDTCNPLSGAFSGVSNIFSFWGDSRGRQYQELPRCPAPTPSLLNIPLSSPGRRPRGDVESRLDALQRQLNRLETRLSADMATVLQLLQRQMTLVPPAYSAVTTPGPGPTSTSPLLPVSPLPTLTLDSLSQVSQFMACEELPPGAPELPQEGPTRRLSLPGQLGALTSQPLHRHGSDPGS
Protocol: Human HERG transfected HEK293S cells were prepared and grown in-house. The collected cells were suspended in 50 mM Tris-HCl (pH 7.4 at 4° C.) and homogenized using a hand held Polytron PT 1200 disruptor set at full power for 20 sec on ice. The homogenates were centrifuged at 48,000×g at 4° C. for 20 min. The pellets were then resuspended, homogenized, and centrifuged once more in the same manner. The final pellets were resuspended in an appropriate volume of 50 mM Tris-HCl, 10 mM KCl, 1 mM MgCl2 (pH 7.4 at 4° C.), homogenized, aliquoted and stored at −80° C. until use. An aliquot of membrane fractions was used for protein concentration determination using BCA protein assay kit (PIERCE) and ARVOsx plate reader (Wallac).
Binding assays were conducted in a total volume of 200 μl in 96-well plates. Twenty μl of test compounds were incubated with 20 μl of [^3H]-dofetilide (Amersham, final 5 nM) and 160 μl of membrane homogenate (25 μg protein) for 60 minutes at room temperature. Nonspecific binding was determined by 10 μM dofetilide at the final concentration. Incubation was terminated by rapid vacuum filtration over 0.5% presoaked GF/B Betaplate filter using Skatron cell harvester with 50 mM Tris-HCl, 10 mM KCl, 1 mM MgCl2, pH 7.4 at 4° C. The filters were dried, put into sample bags and filled with Betaplate Scint. Radioactivity bound to filter was counted with Wallac Betaplate counter.

T1 sequence (Q00960 27-1482, other chains not shown): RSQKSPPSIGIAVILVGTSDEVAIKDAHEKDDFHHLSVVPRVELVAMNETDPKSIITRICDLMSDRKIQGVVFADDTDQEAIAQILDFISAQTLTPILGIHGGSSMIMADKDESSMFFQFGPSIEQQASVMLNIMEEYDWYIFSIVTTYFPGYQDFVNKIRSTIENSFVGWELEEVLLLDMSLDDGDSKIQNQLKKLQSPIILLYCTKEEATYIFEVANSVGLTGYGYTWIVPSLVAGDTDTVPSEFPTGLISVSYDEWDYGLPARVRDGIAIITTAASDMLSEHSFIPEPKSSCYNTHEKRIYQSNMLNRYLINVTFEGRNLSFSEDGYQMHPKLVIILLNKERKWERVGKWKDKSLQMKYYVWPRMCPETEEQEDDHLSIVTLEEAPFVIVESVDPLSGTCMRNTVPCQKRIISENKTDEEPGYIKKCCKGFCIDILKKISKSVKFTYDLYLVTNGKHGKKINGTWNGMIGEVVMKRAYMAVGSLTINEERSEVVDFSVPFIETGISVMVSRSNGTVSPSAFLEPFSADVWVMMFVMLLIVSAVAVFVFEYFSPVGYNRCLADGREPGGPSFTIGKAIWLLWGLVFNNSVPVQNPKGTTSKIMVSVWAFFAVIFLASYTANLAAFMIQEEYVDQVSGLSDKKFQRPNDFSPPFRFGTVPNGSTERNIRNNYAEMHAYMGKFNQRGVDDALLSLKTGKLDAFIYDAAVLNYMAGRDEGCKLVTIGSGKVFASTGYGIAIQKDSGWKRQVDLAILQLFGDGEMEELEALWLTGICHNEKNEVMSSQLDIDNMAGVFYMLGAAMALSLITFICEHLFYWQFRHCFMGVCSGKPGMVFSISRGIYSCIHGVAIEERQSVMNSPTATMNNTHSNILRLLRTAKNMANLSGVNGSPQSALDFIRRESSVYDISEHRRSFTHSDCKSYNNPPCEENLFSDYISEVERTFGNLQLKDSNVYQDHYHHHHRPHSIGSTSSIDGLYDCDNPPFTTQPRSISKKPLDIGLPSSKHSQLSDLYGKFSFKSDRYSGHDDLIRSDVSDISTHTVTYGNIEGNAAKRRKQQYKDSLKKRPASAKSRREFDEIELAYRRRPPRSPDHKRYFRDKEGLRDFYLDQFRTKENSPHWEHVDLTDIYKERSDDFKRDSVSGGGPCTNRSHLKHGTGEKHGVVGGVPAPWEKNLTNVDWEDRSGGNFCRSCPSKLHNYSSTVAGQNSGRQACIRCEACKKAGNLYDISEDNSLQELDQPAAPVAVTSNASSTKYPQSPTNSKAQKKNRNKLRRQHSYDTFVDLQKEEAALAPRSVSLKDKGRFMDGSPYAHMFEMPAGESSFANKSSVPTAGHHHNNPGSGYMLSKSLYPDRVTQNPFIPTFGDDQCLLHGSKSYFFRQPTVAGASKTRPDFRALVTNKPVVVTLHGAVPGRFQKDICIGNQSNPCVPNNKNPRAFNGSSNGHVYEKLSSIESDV

Compound | IC50 [1] [nM] | IC50 [2] [nM]
O=C(NC[C@@H]1CCC[C@H](OCCc2ccccc2)C1)c1cn[nH]c1 (single isomer, unassigned) [Example 116] | 25.9 | > 100000
O=C(NC[C@]1(O)CC[C@H](OCc2ccccc2)CC1)c1ccc(O)cc1 [Example 30, N-{[trans-4-(Benzyloxy)-1-hydroxycyclohexyl]methyl}-4-hydroxybenzamide] | 23.6 | > 100000
O=C(NC[C@]1(O)CC[C@H](Oc2ccc(Cl)cc2)CC1)c1ccc(O)c(F)c1 [Example 33, N-{[trans-4-(4-Chlorophenoxy)-1-hydroxycyclohexyl]methyl}-3-fluoro-4-hydroxybenzamide] | 19.3 | 95600
O=C(NC[C@H]1CC[C@@H](COc2ccccc2)CO1)c1ccc(O)cc1 [Example 35, (+)-4-Hydroxy-N-{[5S-(phenoxymethyl)tetrahydro-2H-pyran-2S-yl]methyl}benzamide] | 20.9 | 51600
O=C(NC[C@@H]1CC[C@H](COc2ccccc2)CO1)c1ccc(O)cc1 [Example 36, (−)-4-Hydroxy-N-{[5R-(phenoxymethyl)tetrahydro-2H-pyran-2R-yl]methyl}benzamide] | 7.5 | 55200
O=C(NC[C@H]1CC[C@@H](COCc2ccccc2)CO1)c1ccc(O)cc1 [Example 39, 4-Hydroxy-N-{[5S-(benzyloxymethyl)tetrahydro-2H-pyran-2S-yl]methyl}benzamide] | 8.2 | > 100000
O=C(NC[C@@H]1CC[C@H](COCc2ccccc2)CO1)c1ccc(O)cc1 [Example 40, 4-Hydroxy-N-{[5R-(benzyloxymethyl)tetrahydro-2H-pyran-2R-yl]methyl}benzamide] | 10.4 | > 100000
O=C(NC[C@H]1CC[C@@H](COc2ccccc2)OC1)c1ccc(O)cc1 [Example 43, (−)-4-Hydroxy-N-{[(3R,6S)-6-(phenoxymethyl)tetrahydro-2H-pyran-3-yl]methyl}benzamide] | 7.6 | > 100000
O=C(NC[C@]1(O)CC[C@H](COc2ccccc2F)CC1)c1ccc(O)c(F)c1 [Example 65, 3-Fluoro-N-({trans-4-[(2-fluorophenoxy)methyl]-1-hydroxycyclohexyl}methyl)-4-hydroxybenzamide] | 10 | > 100000
O=C(NC[C@]1(O)CC[C@H](Cc2ccccc2)CC1)c1ccc(O)cc1 [Example 68, N-[(trans-4-Benzyl-1-hydroxycyclohexyl)methyl]-4-hydroxybenzamide] | 7.3 | > 100000
O=C(NC[C@]1(O)CC[C@H](COCc2ccccc2F)CC1)c1ccc(O)c(F)c1 [Example 69, 3-Fluoro-N-[(trans-4-{[(2-fluorobenzyl)oxy]methyl}-1-hydroxycyclohexyl)methyl]-4-hydroxybenzamide] | 13.2 | > 100000
O=C(NC[C@H]1CC[C@@H](COc2ccc(F)cc2)OC1)c1ccc(O)cc1 [Example 74, N-({(3R,6S)-6-[(4-Fluorophenoxy)methyl]tetrahydro-2H-pyran-3-yl}methyl)-4-hydroxybenzamide] | 7.2 | 54700
O=C(NC[C@H]1CC[C@@H](COc2ccc(F)cc2)CO1)c1ccc(O)cc1 [Example 75, N-({(2R,5R)-5-[(4-Fluorophenoxy)methyl]tetrahydro-2H-pyran-2-yl}methyl)-4-hydroxybenzamide] | 6.2 | 26800
O=C(NC[C@@H]1CC[C@H](COc2ccc(F)cc2)CO1)c1ccc(O)cc1 [Example 76, N-({(2S,5S)-5-[(4-Fluorophenoxy)methyl]tetrahydro-2H-pyran-2-yl}methyl)-4-hydroxybenzamide] | 29.3 | 27700
O=C(NC[C@H]1CC[C@@H](OCCOc2ccccc2)CC1)c1ccc(O)cc1 [Example 78] | 5.4 | 40800
O=C(NC[C@]1(O)CC[C@H](Cc2ccc(F)cc2)CC1)c1ccc(O)c(F)c1 [Example 80, 3-Fluoro-N-{[trans-4-(4-fluorobenzyl)-1-hydroxycyclohexyl]methyl}-4-hydroxybenzamide] | 8.9 | > 100000
O=C(NC[C@]1(O)CC[C@H](Cc2ccc(F)cc2)CC1)c1ccc(O)cc1 [Example 81, N-{[trans-4-(4-Fluorobenzyl)-1-hydroxycyclohexyl]methyl}-4-hydroxybenzamide] | 9.5 | 35700
O=C(NC[C@H]1CC[C@@H](COc2ccccn2)CC1)c1ccc(O)c(F)c1 [Example 89, 3-Fluoro-4-hydroxy-N-({cis-4-[(pyridin-2-yloxy)methyl]cyclohexyl}methyl)benzamide] | 9 | > 100000
O=C(NC[C@H]1CC[C@@H](OCCOc2ccc(F)cc2)CC1)c1cn[nH]c1 [Example 90, N-({cis-4-[2-(4-Fluorophenoxy)ethoxy]cyclohexyl}methyl)-1H-pyrazole-4-carboxamide] | 5.2 | > 100000
O=C(NC[C@H]1CC[C@@H](CCOc2ccccc2)CC1)c1cc(F)c(O)c(F)c1 [Example 91, 3,5-Difluoro-4-hydroxy-N-{[cis-4-(2-phenoxyethyl)cyclohexyl]methyl}benzamide] | 13 | > 30000
O=C(NC[C@H]1CC[C@@H](OCCOc2ccc(F)cc2)CC1)c1ccc(O)nc1 [Example 95] | 4 | > 100000
O=C(NC[C@H]1CC[C@@H](COc2ccccn2)CC1)c1cn[nH]c1 [Example 105, N-({cis-4-[(Pyridin-2-yloxy)methyl]cyclohexyl}methyl)-1H-pyrazole-4-carboxamide] | 27.2 | > 100000
O=C(NC[C@H]1CC[C@@H](COc2cccc(F)c2)CC1)c1cn[nH]c1 [Example 106, N-({cis-4-[(3-Fluorophenoxy)methyl]cyclohexyl}methyl)-1H-pyrazole-4-carboxamide] | 16 | 29100
O=C(NC[C@H]1CC[C@@H](COc2ccccc2)CC1)c1cc(F)c(O)c(F)c1 [Example 108, 3,5-Difluoro-4-hydroxy-N-{[cis-4-(phenoxymethyl)cyclohexyl]methyl}benzamide] | 17.8 | > 100000
O=C(NC[C@H]1CC[C@@H](CCOc2ccc(F)cc2)CO1)c1cn[nH]c1 [Example 113, N-({(2R,5S)-5-[2-(4-Fluorophenoxy)ethyl]tetrahydro-2H-pyran-2-yl}methyl)-1H-pyrazole-4-carboxamide] | 6.5 | > 100000
O=C(NC[C@@H]1CC[C@H](CCOc2ccc(F)cc2)CO1)c1cn[nH]c1 [Example 114, N-({(2S,5R)-5-[2-(4-fluorophenoxy)ethyl]tetrahydro-2H-pyran-2-yl}methyl)-1H-pyrazole-4-carboxamide] | 7.8 | 99400
O=C(NC[C@H]1CC[C@@H](COc2ccc(Cl)cc2)CO1)c1cn[nH]c1 [Example 120, N-({(2R,5R)-5-[(4-Chlorophenoxy)methyl]tetrahydro-2H-pyran-2-yl}methyl)-1H-pyrazole-4-carboxamide] | 12.2 | > 30000
Cc1ccc(OC[C@@H]2CC[C@H](CNC(=O)c3cn[nH]c3)OC2)cc1 [Example 123, N-({(2R,5R)-5-[(4-Methylphenoxy)methyl]tetrahydro-2H-pyran-2-yl}methyl)-1H-pyrazole-4-carboxamide] | 7.1 | > 100000
Nc1n[nH]cc1C(=O)NC[C@H]1CC[C@@H](COc2ccc(Cl)cc2)CO1 [Example 125, 3-Amino-N-({(2R,5R)-5-[(4-chlorophenoxy)methyl]tetrahydro-2H-pyran-2-yl}methyl)-1H-pyrazole-4-carboxamide] | 12.5 | > 30000
O=C(NC[C@H]1CC[C@@H](COc2ccc(Cl)cc2)CO1)c1cc(F)c(O)c(F)c1 [Example 126, N-({(2R,5R)-5-[(4-Chlorophenoxy)methyl]tetrahydro-2H-pyran-2-yl}methyl)-3,5-difluoro-4-hydroxybenzamide] | 18.1 | > 100000
